Among the test systems are HL-60(TB) leukemia; NCI-H460 lung; HCT-15 colon; MOLT-4 leukemia; OVCAR-4 ovarian; BT-549 breast; M14 melanoma; LOX IMVI melanoma; SK-MEL-5 melanoma; NCI-H522 lung.
What all share (experiment): NCI tumour cell line growth inhibition, 48 h

SMILES strings stand for the structures. Values joined by “and” are separate entries in the source; they are usually repeats but may differ in a detail not shown here. Identical values can stand only once.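 Compound exposure: 48 hours, 5 concentrations, 96-well plates. GI50 marks 50% less growth. At the TGI there is no net growth.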

For `COc1ccc(-c2nn(-c3cccc(Cl)c3)cc2-c2c(C#N)c(=O)n3[nH]c(-c4ccc(C)cc4)nc3c2C#N)cc1`, the GI50 was 8.33 µM in the assay on HL-60(TB) leukemia; 1.85 µM in the assay on NCI-H460 lung; 9.95 µM in the assay with HCT-15 colon; 0.752 µM in the assay on MOLT-4 leukemia; 1.09 µM in the assay on OVCAR-4 ovarian; 3.79 µM in the assay with BT-549 breast. The GI50 with M14 melanoma was 1.66 µM; in the assay on LOX IMVI melanoma, 2.44 µM; with SK-MEL-5 melanoma, 6.06 µM; in the assay on NCI-H522 lung, 1.45 µM. Moreover, the TGI in the assay on HL-60(TB) leukemia is 29.6 µM; in the assay with NCI-H460 lung, 8.31 µM; in the assay on HCT-15 colon, > 50 µM; in the assay with MOLT-4 leukemia it was 5.46 µM; in the assay with OVCAR-4 ovarian, 4 µM; with BT-549 breast, 14.8 µM. The TGI in the assay with M14 melanoma came to 6.67 µM; in the assay on LOX IMVI melanoma, 17.1 µM; in the assay on SK-MEL-5 melanoma, 14 µM; in the assay on NCI-H522 lung it was 4.89 µM.
On to `CCn1c2ccc(C(=O)CCCN(C)C)cc2c2cc(C(=O)CCCN(C)C)ccc21`, for which the TGI with HL-60(TB) leukemia is 3.78 µM; in the assay on NCI-H460 lung it was 2.61 µM; in the assay on HCT-15 colon, 8.92 µM; with MOLT-4 leukemia, > 100 µM; with OVCAR-4 ovarian, 4.17 µM; in the assay with BT-549 breast it was 12.4 µM. In addition, the TGI in the assay with M14 melanoma stood at 5.1 µM; in the assay on LOX IMVI melanoma, 4.76 µM; in the assay with SK-MEL-5 melanoma, 17.1 µM; in the assay on NCI-H522 lung, 8.68 µM.
Take `CN[C@@H]1C[C@H]2O[C@@](C)([C@@H]1OC)n1c3ccccc3c3c4c(c5c6ccccc6n2c5c31)C(=O)N[C@H]4O`: the TGI in the assay on HL-60(TB) leukemia was 0.52 µM; with NCI-H460 lung it was 1.23 µM; in the assay with HCT-15 colon, > 3.31 µM; in the assay with MOLT-4 leukemia, > 4.75 µM; in the assay on OVCAR-4 ovarian, > 10 µM; in the assay on BT-549 breast, 0.617 µM. Further, the TGI in the assay on M14 melanoma was > 3.69 µM; with LOX IMVI melanoma it was 1.09 µM; in the assay with SK-MEL-5 melanoma, 1.39 µM; in the assay with NCI-H522 lung, 0.878 µM. For the same molecule, the GI50 in the assay on NCI-H460 lung is 0.0471 µM; in the assay on HCT-15 colon, 0.157 µM; with MOLT-4 leukemia, 0.0337 µM; with OVCAR-4 ovarian it was 0.125 µM; in the assay on BT-549 breast, 0.0683 µM; in the assay with SK-MEL-5 melanoma, 0.102 µM. Also, the GI50 in the assay on NCI-H522 lung is 0.103 µM.
In the case of `Oc1ccc2ccccc2c1C1NN=C(c2ccccc2)S1` (stereo not given), the GI50 is 0.353 µM in the assay on HL-60(TB) leukemia; 0.34 µM with NCI-H460 lung; 0.399 µM with HCT-15 colon; 0.467 µM in the assay with MOLT-4 leukemia; 0.515 µM in the assay on OVCAR-4 ovarian; 0.858 µM in the assay with BT-549 breast. Also, the GI50 in the assay on M14 melanoma is 0.279 µM; with LOX IMVI melanoma, 0.327 µM; in the assay on SK-MEL-5 melanoma, 0.342 µM; in the assay on NCI-H522 lung, 0.307 µM. For the same molecule, the TGI in the assay on HL-60(TB) leukemia was 4.13 µM; in the assay on NCI-H460 lung it was 11 µM; in the assay on HCT-15 colon, > 50.8 µM; in the assay with MOLT-4 leukemia, > 56.9 µM; with OVCAR-4 ovarian it was > 71.3 µM; in the assay with BT-549 breast, 28.9 µM. Further, the TGI stood at 0.819 µM in the assay on M14 melanoma, 13 µM in the assay with LOX IMVI melanoma, 2 µM with SK-MEL-5 melanoma and 13.5 µM in the assay on NCI-H522 lung.
For the molecule `CC1(C)CCC[C@]2(C)c3cc(O)ccc3CC[C@@H]12`, the GI50 with HL-60(TB) leukemia was 16 µM; in the assay with NCI-H460 lung, 18.6 µM; with HCT-15 colon, 17.1 µM; in the assay with MOLT-4 leukemia it was 11.7 µM; in the assay on OVCAR-4 ovarian, 16.6 µM; with BT-549 breast, 19.4 µM. Besides, the GI50 in the assay with M14 melanoma is 28.2 µM; with LOX IMVI melanoma it was 16.9 µM; in the assay with SK-MEL-5 melanoma it was 11.3 µM; with NCI-H522 lung, 21.5 µM. Besides, the TGI came to 48.5 µM with HL-60(TB) leukemia; 40.9 µM with NCI-H460 lung; 35.2 µM with HCT-15 colon; 67.3 µM in the assay on MOLT-4 leukemia; 33.6 µM in the assay on OVCAR-4 ovarian; 33.5 µM in the assay on BT-549 breast. The TGI in the assay on M14 melanoma was > 100 µM; in the assay with LOX IMVI melanoma, 33.7 µM; with SK-MEL-5 melanoma, 23.4 µM; in the assay with NCI-H522 lung, 47.4 µM.
As for `C[C@@H](NC(=O)[C@@H](CC(=O)N1CCC(N2CCCCC2)CC1)N1C(=O)[C@@H](N2C(=O)OC[C@@H]2c2ccccc2)[C@H]1/C=C/c1cccc(Cl)c1)c1ccccc1`, the GI50 in the assay with HL-60(TB) leukemia is 2.21 µM; in the assay with NCI-H460 lung, 2.02 µM; with HCT-15 colon, 2.56 µM; in the assay with MOLT-4 leukemia, 3.2 µM; in the assay on OVCAR-4 ovarian, 10.5 µM; with BT-549 breast, 5.14 µM. In addition, the GI50 in the assay on M14 melanoma is 1.75 µM; with LOX IMVI melanoma it was 1.46 µM; in the assay with SK-MEL-5 melanoma, 1.85 µM; in the assay with NCI-H522 lung, 1.79 µM. In addition, the TGI was 4.87 µM with HL-60(TB) leukemia; 3.95 µM with NCI-H460 lung; 7.74 µM in the assay on HCT-15 colon; 10.7 µM in the assay on MOLT-4 leukemia; 24.8 µM with OVCAR-4 ovarian; 18 µM in the assay with BT-549 breast. Also, the TGI in the assay with M14 melanoma came out at 3.37 µM; in the assay on LOX IMVI melanoma, 3.06 µM; with SK-MEL-5 melanoma, 3.34 µM; in the assay on NCI-H522 lung, 4.14 µM.
For the molecule `CCOC(=O)NC1=C(N2CC2)C(=O)C(NC(=O)OCC)=C(N2CC2)C1=O`, the GI50 in the assay with HL-60(TB) leukemia was 1.85 µM and 0.403 µM; with NCI-H460 lung it was 0.505 µM and 0.721 µM; with HCT-15 colon, 11.4 µM and 10.2 µM; in the assay on MOLT-4 leukemia, 3.25 µM; in the assay with OVCAR-4 ovarian it was 12.8 µM and 7 µM; in the assay with M14 melanoma, 4.91 µM and 4.5 µM. Moreover, the GI50 in the assay on SK-MEL-5 melanoma was 4.7 µM; in the assay on NCI-H522 lung, 5.95 µM and 4.17 µM. The TGI in the assay with HL-60(TB) leukemia is 11 µM and 4 µM and 1.49 µM; with NCI-H460 lung, 20 µM and 16.2 µM and 31 µM; with HCT-15 colon, 25 µM and 42.9 µM and 44.2 µM; with MOLT-4 leukemia, 12.6 µM and 11 µM; in the assay with OVCAR-4 ovarian, 24 µM and 11.8 µM and 17.7 µM; with BT-549 breast, 25 µM. Further, the TGI in the assay on M14 melanoma is 25 µM and 23.7 µM and 31.7 µM; with LOX IMVI melanoma, 17.1 µM and 11.9 µM; in the assay with SK-MEL-5 melanoma, 15 µM and 9.97 µM and 7.95 µM; in the assay with NCI-H522 lung, 17.5 µM and 9.09 µM and 9.12 µM.
Turning to `CC(C)[NH-].CC(C)[NH-].O.O.[Cl][Pt+2][Cl]`, the GI50 with HL-60(TB) leukemia is 15.3 µM; in the assay on NCI-H460 lung, 8.8 µM; in the assay on HCT-15 colon, 35.7 µM; in the assay on MOLT-4 leukemia, 10.2 µM; with OVCAR-4 ovarian, 28.7 µM; in the assay with BT-549 breast, 56 µM. Besides, the GI50 in the assay with M14 melanoma was 37.5 µM; in the assay with LOX IMVI melanoma, 18.3 µM; in the assay on SK-MEL-5 melanoma, 21.2 µM; in the assay with NCI-H522 lung it was 20.4 µM. In addition, the TGI in the assay with HL-60(TB) leukemia is 83.7 µM; in the assay with NCI-H460 lung, 62.3 µM; in the assay on HCT-15 colon, 208 µM; in the assay with MOLT-4 leukemia it was 132 µM; in the assay with OVCAR-4 ovarian, 106 µM; in the assay with BT-549 breast, 266 µM. Besides, the TGI worked out at 139 µM in the assay on M14 melanoma, 51.4 µM with LOX IMVI melanoma, 59.9 µM in the assay with SK-MEL-5 melanoma and 74.2 µM in the assay on NCI-H522 lung.

Values taken from PubChem BioAssay (NCI).
